# Assay results published in US7147872B2, “Environmentally compatible processes compositions and materials treated thereby” (Pimi Marion Holdings, Ltd., priority 1998, dated 2006).
# Tested on: potato seeds
# Assay: Dry fog treatment of potato seeds to prevent sprouting, H2O2 with Ag and Cu ion (Example 19)
# Assay type: in vivo
# Conditions: H2O2 500 PPM, Ag ion 0, Cu ion 0; 90% RH, 10° C.
# From the text: The results were as follows:
compound,measurement,value
"OO [H2O2, hydrogen peroxide]",Sprouting (%) one month,8%
same,Sprouting (%) three months,32%
same,Sprouting (%) two months,22%
